Zone of inhibition, IC50 and Solubility in solvent data for three compounds are collected here from patent US20060014825A1, “Novel k99-5278 substance and a process for producing the same” (priority 2002, published 2006).

What is called zone of inhibition is the size of the clear area around the sample on an inoculated plate. As a reminder, the IC50 is the concentration that inhibits the measured activity by half.

Data set [1] relates to Aspergillus niger KF103 (ATCC 6275). Briefly: Antifungal activity by paper disc method. It counts as cell-based. The following applies: ATCC6275, 10 μg, GY agar medium, 27° C. for 24 hours. As for the experimental part: (§1) Biological properties of K99-5278 substance of the present invention are explained in detail hereinbelow. • (1) Assays of antifungal activities by paper disc method (filter paper disc method)
(§2) Antifungal activities of K99-5278 substance were performed using Aspergillus niger KF103 (ATCC 6275), Mucor racemosus KF223 (IFO 4581), Candida albicans KF1 and Saccharomyces cerevisiae KF26. Aspergillus niger KF103 (ATCC 6275) and Candida albicans KF1 were inoculated at 0.2%, and Mucor racemosus KF223 (IFO 4581) and Saccharomyces cerevisiae KF26 were inoculated at 0.3% in GY agar medium (glucose 1.0%, yeast extract 0.5%, agar 0.8%, pH 6.0). Activities were evaluated by paper disc method (thickness: 6 mm: Advantec Inc., Japan), and a diameter of the inhibition ring was measured after incubating at 27° C. for 24 hours.

The test system of data set [2] is Candida albicans KF1. As to the kind of experiment: Antifungal activity by paper disc method. The following applies: 10 μg, GY agar medium, 27° C. for 24 hours. It counts as cell-based. As for the experimental part: as §1, §2
Data set [3] has as its system Mucor racemosus KF223 (IFO 4581). Briefly: Antifungal activity by paper disc method. The format is cell-based. The following applies: IFO4581, 10 μg, GY agar medium, 27° C. for 24 hours. As for the experimental part:
as §1, §2

Data set [4] deals with Saccharomyces cerevisiae KF26. Briefly: Antifungal activity by paper disc method. The format is cell-based. The following applies: 10 μg, GY agar medium, 27° C. for 24 hours. The method, then: as §1, §2
For data set [5], the system named is Saccharomyces cerevisiae KF26. As to the kind of experiment: Antifungal activity by liquid culture method (turbidity at 550 nm). It counts as cell-based. The following applies: Saccharomyces cerevisiae KF26, liquid medium, 27° C. for 24 hours; read-out: IC50 for growth of the test organism. As for the experimental part:
Antifungal activities of K99-5278A substance, K99-5278B substance and K99-5278C substance by the liquid medium were performed as follows. • 1) Saccharomyces cerevisiae KF26 was used as a test organism. Samples dissolved in DMSO were added in the 96 well microplate and the solvent was distilled off in vacuo. Suspension, in which Saccharomyces cerevisiae KF26 0.3% was inoculated in a medium (glucose 1.0% and yeast extract 0.5%, pH 6.0), 200 μl/well was added and incubated at 27° C. for 24 hours. After the incubation, turbidity was measured by using absorption spectrometer with wavelength at 550 nm. Activity was determined by setting the value without drug addition as 100%, and the concentration shown by 50% turbidity was set as IC50.

Data set [6] relates to Aspergillus niger KF103. The data set is described as above. It counts as cell-based. The following applies: Aspergillus niger KF103, liquid medium, 27° C. for 48 hours; read-out: IC50 for growth of the test organism. The method, then:
Samples dissolved in DMSO were added in the 96 well microplate and the solvent was distilled off in vacuo. Suspension, in which Aspergillus niger KF103 0.3% was inoculated in a medium (glucose 1.0% and yeast extract 0.5%, pH 6.0), 200 μl/well was added and incubated at 27° C. for 48 hours. After the incubation, turbidity was measured by using absorption spectrometer with wavelength at 550 nm. Activity was determined by setting the value without drug addition as 100%, and the concentration shown by 50% turbidity was set as IC50.

The subject of data set [7] is Mucor racemosus KF223. The data set is described as above. The following applies: Mucor racemosus KF223, liquid medium, 27° C. for 24 hours; read-out: IC50 for growth of the test organism. It counts as cell-based. As for the experimental part: Samples dissolved in DMSO were added in the 96 well microplate and the solvent was distilled off in vacuo. Suspension, in which Mucor racemosus KF223 0.3% was inoculated in a medium (glucose 1.0% and yeast extract 0.5%, pH 6.0), 200 μl/well was added and incubated at 27° C. for 24 hours. After the incubation, turbidity was measured by using absorption spectrometer with wavelength at 550 nm. Activity was determined by setting the value without drug addition as 100%, and the concentration shown by 50% turbidity was set as IC50.

Data set [8] has as its system Candida albicans KFI. Described as above. It counts as cell-based. The following applies: liquid medium, 27° C. for 24 hours, read-out: IC50 for growth of the test organism. The method, then: Samples dissolved in DMSO were added in the 96 well microplate and the solvent was distilled off in vacuo. Suspension, in which Candida albicans KF1 0.3% was inoculated in a medium (glucose 1.0% and yeast extract 0.5%, pH 6.0), 200 μl/well was added and incubated at 27° C. for 24 hours. After the incubation, turbidity was measured by using absorption spectrometer with wavelength at 550 nm. Activity was determined by setting the value without drug addition as 100%, and the concentration shown by 50% turbidity was set as IC50.

Data set [9] in a line: Solubility in solvent.

≈ marks a conversion by molar mass, not a printed value.

As to `CC1/C=C/C=C/C=C/C=C/C=C/C(O)CC(O)CC(O)CC(O)CCCC(O)CC(O)C(C)C(=O)OC1C` (stereo not drawn) [K99-5278A substance], the zone of inhibition at 10 µg/disc in [1] was 18 mm; in [2] it was 9 mm; in data set [3], 9 mm; in data set [4] it was 12 mm. Also, the IC50 in data set [5] is 7.2 mg/L (≈ 13.4 µM); in [6], 0.32 mg/L (≈ 0.596 µM); in data set [7], 15 mg/L (≈ 27.9 µM); in data set [8] it was 61 mg/L (≈ 114 µM). In addition, the Solubility in solvent result in data set [9] (chloroform) was “slightly soluble”; in data set [9] (dimethyl sulfoxide (DMSO)), “soluble”; in data set [9] (ethyl acetate), “slightly soluble”; in data set [9] (hexane), “insoluble”; in data set [9] (methanol), “soluble”; in [9] (water), “insoluble”.
For `CCC1OC(=O)C(C)C(O)CC(O)CCCC(O)CC(O)CC(O)C(C)C(O)/C=C/C=C/C=C/C=C/C=C/C1C` (stereo not drawn) [K99-5278B substance], the zone of inhibition at 10 µg/disc in [1] amounted to 16 mm; in data set [2], 7 mm; in data set [3] it was 9 mm; in [4], 12 mm. Further, the IC50 in [5] came to 11.8 mg/L (≈ 20.9 µM); in data set [6], 0.53 mg/L (≈ 0.938 µM); in data set [7] it was 25 mg/L (≈ 44.3 µM); in data set [8], 100 mg/L (≈ 177 µM). The Solubility in solvent result in [9] (chloroform) is on record as “insoluble”; in data set [9] (dimethyl sulfoxide (DMSO)) it was “soluble”; in data set [9] (ethyl acetate), “insoluble”; in data set [9] (hexane), “insoluble”; in [9] (methanol) it was “soluble”; in [9] (water) it was “insoluble”.
Regarding `CC(C)C1OC(=O)C(C)C(O)CC(O)CCCC(O)CC(O)CC(O)C(C)C(O)/C=C/C=C/C=C/C=C/C=C/C1C` (stereo not drawn) [K99-5278C substance], the zone of inhibition at 10 µg/disc in [1] turned out to be 15 mm; in data set [2], 8 mm; in data set [3], 8 mm; in [4], 9 mm. Further, the IC50 came to 16.6 mg/L (≈ 28.7 µM) in [5], 0.75 mg/L (≈ 1.3 µM) in [6], 35 mg/L (≈ 60.5 µM) in [7] and 140 mg/L (≈ 242 µM) in data set [8]. The Solubility in solvent result in data set [9] (chloroform) was “slightly soluble”; in [9] (dimethyl sulfoxide (DMSO)), “soluble”; in data set [9] (ethyl acetate) it was “slightly soluble”; in [9] (hexane) it was “insoluble”; in [9] (methanol), “soluble”; in data set [9] (water), “insoluble”.
